Where “and” joins values, the source holds several entries; their conditions need not be identical. Equal entries are not always repeated. Where two headings read alike, the source gives them in different places.
Columns and labels:
[1] = tested on: leukemia (MOLT-4) cell line; experiment: MTT antiproliferative assay, MOLT-4; assay type: cell-based, human
Method: After 24 h of culture incubation and supernatants discarded.

[2] = tested on: normal cell line WI-38; experiment: MTT cytotoxicity on normal cell line WI-38; conditions: listed as STA
[3] = tested on: breast cancer (T47D) cell line; experiment: MTT antiproliferative assay, T-47D
Method: The median inhibitory concentration (IC50) and GI50 (average IC50) against the three cancer cell lines were calculated. See Appendix B.
Cells were cultured using DMEM (Invitrogen/Life Technologies) supplemented with 10% FBS (Hyclone,), 10 ug/ml of insulin (Sigma), and 1% penicillin-streptomycin. Plate cells (cells density 1.2 – 1.8 × 10,000 cells/well) in a volume of 100µl complete growth medium + 100 ul of the tested compound per well in a 96-well plate for 24 hours before the MTT assay. In atypical experiment, one hundred micro liters of serial 10-fold diluted sterile tested compounds were added to final concentrations of […] using culture media as negative control. After 24 h of culture incubation and supernatants discarded. HOP-92 lung, MOLT-4 leukemia, and T-47D breast cell lines were trypsinized and washed with Ca2/Mg2 free PBS (pH 7.2). we removed cultures from incubator into laminar flow hood or other sterile work area. […] Each test should include a blank containing complete medium without cells. […] Add reconstituted MTT in an amount equal to 10% of the culture medium volume. Return cultures to incubator for 2-4 hours depending on cell type and maximum cell density. […] Spectrophotometrically absorbance was measured at a wavelength of 570 nm. Measure the background absorbance of multiwell plates at 690 nm and subtract from the […] measurement. Results from all experiments were recorded and the percentage of viable cells was calculated.

[4] = tested on: NCI 60 cancer cell lines; experiment: NCI anticancer screening over a panel of 60 cancer cells, single concentration 10 µM; assay type: cell-based, human; conditions: Homo sapiens, read-out: Growth inhibition (GI %)
In short: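 Run under the NCI Compound Evaluation Branch protocol, each compound was tested once at 10 µM. The panel comprised 60 cancer cell lines of diverse tissue origin, including leukemia, lung, colon, CNS, renal, ovarian, breast and prostate.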

CN[C@@H]1C[C@H]2O[C@@](C)([C@@H]1OC)n1c3ccccc3c3c4c(c5c6ccccc6n2c5c31)C(=O)NC4 [Staurosporine, reference compound] was tested, and the “% viability” value ([1]; MOLT-4, 0.4ug (log conc. -0.41), listed as STA) was 72.582% and 72.58%, the “% viability” value ([1]; MOLT-4, 1.6ug (log conc. 0.193), listed as STA) was 62.059% and 62.06% and the “% viability” value ([1]; MOLT-4, 6.3ug (log conc. 0.796)) was 51.82%. For the same compound, the “% viability” value ([1]; MOLT-4, 25ug (log conc. 1.398)) was 36.23%, the “% viability” value ([1]; MOLT-4, 100ug (log conc. 2)) was 24.46% and the “% viability” value ([2]; WI38, 1.6uM (log conc. 0.19), 1.6 µM) was 68.1%. For the same compound, the “% viability” value ([2]; WI38, 100uM (log conc. 2), 100 µM) was 37.43%, the viability at 0.4 µM ([3]; Homo sapiens, T47D) was 69% and the viability at 6.3 µM ([3]; Homo sapiens, T47D, 6.3uM (log 0.796)) was 45.9%. The viability at 25 µM ([3]; Homo sapiens, T47D, 25uM (log 1.398)) was 35%, the viability at 100 µM ([3]; Homo sapiens, T47D, 100uM (log 2), MTT absorbance 450 nm) was 29.6% and the “% viability” value ([3]; T47D, 1.6ug (log 0.193), listed as STA) was 61.548% and 61.55%. The “% viability” value ([3]; human, 0.4 µM) was 69.04%.
In the case of CC(=O)c1cnn(-c2cc(=O)[nH]c3ccc(Br)cc23)c1C [Compound 2e, 4-(4-Acetyl-5-methyl-1H-pyrazol-1-yl)-6-bromoquinolin-2(1H)-one], the inhibition at 10 µM ([4]; 786-0, Renal cancer 786-0, 10 μM) is reported as under 5%, the inhibition at 10 µM ([4]; A498, Renal cancer A498, 10 μM) is reported as under 5% and the inhibition at 10 µM ([4]; A549, Non-small cell lung cancer A549/ATCC, 10 μM) is reported as under 5%. The inhibition at 10 µM ([4]; ACHN, Renal cancer ACHN, 10 μM) was under 5%, the inhibition at 10 µM ([4]; BT-549, Breast cancer BT-549, 10 μM) was under 5% and the inhibition at 10 µM ([4]; CAKI-1, Renal cancer CAKI-1, 10 μM) was 16.5%. For the same compound, the inhibition at 10 µM ([4]; CCRF-CEM, Leukemia CCRF-CEM, 10 μM) was 8.16%, the inhibition at 10 µM ([4]; COLO 205, Colon cancer COLO 205, 10 μM) was under 5% and the inhibition at 10 µM ([4]; DU-145, Prostate cancer DU-145, 10 μM) was under 5%. For the same compound, the inhibition at 10 µM ([4]; EKVX, Non-small cell lung cancer EKVX, 10 μM) was 6.46%, the inhibition at 10 µM ([4]; HCC 2998, Colon cancer HCC-2998, 10 μM) was under 5% and the inhibition at 10 µM ([4]; HCT-15, Colon cancer HCT-15, 10 μM) was under 5%. For the same compound, the inhibition at 10 µM ([4]; HCT-116, Colon cancer HCT-116, 10 μM) was under 5%, the inhibition at 10 µM ([4]; HL-60, Leukemia HL-60(TB), 10 μM) was 12.8% and the inhibition at 10 µM ([4]; HOP-62, Non-small cell lung cancer HOP-62, 10 μM) was 13.6%. It also gave an inhibition at 10 µM ([4]; HOP-92, Non-small cell lung cancer HOP-92, 10 μM) of 20.4%, an inhibition at 10 µM ([4]; HT-29, Colon cancer HT29, 10 μM) of 7.95% and an inhibition at 10 µM ([4]; Hs-578T, Breast cancer HS 578T, 10 μM) of 6.91%. The inhibition at 10 µM ([4]; IGROV-1, Ovarian cancer IGROV1, 10 μM) was under 5%, the inhibition at 10 µM ([4]; K562, Leukemia K-562, 10 μM) was under 5% and the inhibition at 10 µM ([4]; KM12, Colon cancer KM12, 10 μM) was under 5%. It also gave an inhibition at 10 µM ([4]; LOX IMVI, Melanoma LOX IMVI, 10 μM) of 9.22%, an inhibition at 10 µM ([4]; Leukemia SR, 10 μM) of under 5% and an inhibition at 10 µM ([4]; MCF7, Breast cancer MCF7, 10 μM) of under 5%. For the same compound, the inhibition at 10 µM ([4]; MDA-MB-231, Breast Cancer MDA-MB 231/ATCC, 10 μM) was under 5%, the inhibition at 10 µM ([4]; MDA-MB-435, Melanoma MDA-MB-435, 10 μM) was under 5% and the inhibition at 10 µM ([4]; MDA-MB-468, Breast cancer MDA-MB-468, 10 μM) was under 5%. For the same compound, the inhibition at 10 µM ([4]; MOLT-4, Leukemia MOLT-4, 10 μM) was under 5%, the inhibition at 10 µM ([4]; Malme-3M, Melanoma MALME-3M, 10 μM) was 14% and the inhibition at 10 µM ([4]; Melanoma M14, 10 μM) was under 5%. For the same compound, the inhibition at 10 µM ([4]; NCI-H23, Non-small cell lung cancer NCI-H23, 10 μM) was under 5%, the inhibition at 10 µM ([4]; NCI-H226, Non-small cell lung cancer NCI-H226, 10 μM) was 10.7% and the inhibition at 10 µM ([4]; NCI-H322M, Non-small cell lung cancer NCI-H322M, 10 μM) was under 5%. It also gave an inhibition at 10 µM ([4]; NCI-H460, Non-small cell lung cancer NCI-H460, 10 μM) of under 5%, an inhibition at 10 µM ([4]; NCI-H522, Non-small cell lung cancer NCI-H522, 10 μM) of 7.32% and an inhibition at 10 µM ([4]; NCI/ADR-RES, Ovarian cancer NCI/ADR-RES, 10 μM) of under 5%. It also gave an inhibition at 10 µM ([4]; OVCAR-3, Ovarian cancer OVCAR-3, 10 μM) of under 5%, an inhibition at 10 µM ([4]; OVCAR-4, Ovarian cancer OVCAR-4, 10 μM) of under 5% and an inhibition at 10 µM ([4]; OVCAR-5, Ovarian cancer OVCAR-5, 10 μM) of under 5%. The inhibition at 10 µM ([4]; OVCAR-8, Ovarian cancer OVCAR-8, 10 μM) was under 5%, the inhibition at 10 µM ([4]; Prostate cancer PC-3, 10 μM) was 13.3% and the inhibition at 10 µM ([4]; RPMI-8226, Leukemia RPMI-8226, 10 μM) was 9.34%. For the same compound, the inhibition at 10 µM ([4]; RXF 393, Renal cancer RXF 393, 10 μM) was under 5%, the inhibition at 10 µM ([4]; SF-268, CNS Cancer SF-268, 10 μM) was under 5% and the inhibition at 10 µM ([4]; SF-295, CNS Cancer SF-295, 10 μM) was 6.55%. It also gave an inhibition at 10 µM ([4]; SF-539, CNS Cancer SF-539, 10 μM) of 7.46%, an inhibition at 10 µM ([4]; SK-MEL-2, Melanoma SK-MEL-2, 10 μM) of under 5% and an inhibition at 10 µM ([4]; SK-MEL-5, Melanoma SK-MEL-5, 10 μM) of under 5%. For the same compound, the inhibition at 10 µM ([4]; SK-MEL-28, Melanoma SK-MEL-28, 10 μM) was under 5%, the inhibition at 10 µM ([4]; SK-OV-3, Ovarian cancer SK-OV-3, 10 μM) was under 5% and the inhibition at 10 µM ([4]; SN12C, Renal cancer SN12C, 10 μM) was 6.46%. The inhibition at 10 µM ([4]; SNB-19, CNS Cancer SNB-19, 10 μM) was 5.52%, the inhibition at 10 µM ([4]; SNB-75, CNS Cancer SNB-75, 10 μM) was 15.6% and the inhibition at 10 µM ([4]; SW-620, Colon cancer SW-620, 10 μM) was under 5%. The inhibition at 10 µM ([4]; T47D, Breast cancer T-47D, 10 μM) was 12.2%, the inhibition at 10 µM ([4]; TK-10, Renal cancer TK-10, 10 μM) was under 5% and the inhibition at 10 µM ([4]; U-251, CNS Cancer U251, 10 μM) was under 5%. It also gave an inhibition at 10 µM ([4]; UACC-62, Melanoma UACC-62, 10 μM) of under 5%, an inhibition at 10 µM ([4]; UACC-257, Melanoma UACC-257, 10 μM) of under 5% and an inhibition at 10 µM ([4]; UO-31, Renal cancer UO-31, 10 μM) of 37.4%.
